Measured values taken from patent US11834453B2, “Substituted pyrimido[5,4-d]pyrimidines as HER2 inhibitors” (Array BioPharma Inc., priority 2020, dated 2023).
Where two headings read alike, the source gives them in different places.

What was measured:
EGFR = EGFR (Homo sapiens (Human), UniProt P00533); test: ErbB enzyme assay (CisBio HTRF KinEASE-TK), Assay 3; assay type: biochemical
Summary of the method: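 HTRF dual-wavelength read after 1 h detection; POC normalised to DMSO (100) and pre-quenched (0) controls, IC50 where 4-parameter curve crosses 50 POC. Reaction: 250 nM TK-substrate biotin, 1 mM ATP, pH 7.4 HEPES buffer with MgCl2, 30 min, 22 °C.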

EGFR wild type (EGFR WT) = EGFR wild type (EGFR WT) (Homo sapiens (Human), UniProt P00533); test: Cellular phosphorylation assay, EGF-stimulated EGFR phosphorylation in engineered NIH 3T3 cells, Phospho-EGFR DuoSet IC ELISA, Assay 5; assay type: cell-based
Summary of the method: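 Phospho-EGFR ELISA on lysates of engineered NIH 3T3 EGFR WT cells, IC50 derived from concentration curves. Cells plated at 20,000/well overnight, given compound dilutions 1 h at 37 °C, then rEGF 100 ng/ml for a further 10 min before lysis.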

[1] = biological target: ErbB2 insYVMA (HER2-YVMA, SEQ ID NO: 2) (Homo sapiens, UniProt P04626, INS775YVMA/P1170A); test: biochemical; conditions: ErbB2 insYVMA enzyme assay
[2] = biological target: ErbB2 with Exon 20 YVMA insertion (HER2-YVMA) (Homo sapiens (Human), UniProt P04626, INS775YVMA); test: Cellular phosphorylation assay, constitutive ErbB2 phosphorylation (Y1196) in engineered NIH 3T3 cells, Assay 4; assay type: cell-based
Summary of the method: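 In-cell Western in NIH 3T3 cells carrying ErbB2 exon 20 YVMA insertion, with no ligand stimulation. One hour compound exposure at 37 °C before fixation and anti-pY1196 plus GAPDH staining with dual-wavelength fluorescence. IC50 derived after GAPDH normalization.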

ErbB2 WT = ErbB2 WT (Homo sapiens (Human), UniProt P04626); test: ErbB enzyme assay (CisBio HTRF KinEASE-TK), Assay 2; assay type: biochemical
Summary of the method: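 Readout is HTRF KinEASE-TK, using Sa-XL665 and cryptate antibody for 1 h at 22 °C, as percent of control between DMSO-only (100) and pre-quenched (0) reactions. The kinase reaction runs 30 min at 22 °C with 1 mM ATP and 250 nM biotinylated TK substrate, in HEPES pH 7.4 with MgCl2 and 2% DMSO.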

EGFR, sequence (P00533 25-1210): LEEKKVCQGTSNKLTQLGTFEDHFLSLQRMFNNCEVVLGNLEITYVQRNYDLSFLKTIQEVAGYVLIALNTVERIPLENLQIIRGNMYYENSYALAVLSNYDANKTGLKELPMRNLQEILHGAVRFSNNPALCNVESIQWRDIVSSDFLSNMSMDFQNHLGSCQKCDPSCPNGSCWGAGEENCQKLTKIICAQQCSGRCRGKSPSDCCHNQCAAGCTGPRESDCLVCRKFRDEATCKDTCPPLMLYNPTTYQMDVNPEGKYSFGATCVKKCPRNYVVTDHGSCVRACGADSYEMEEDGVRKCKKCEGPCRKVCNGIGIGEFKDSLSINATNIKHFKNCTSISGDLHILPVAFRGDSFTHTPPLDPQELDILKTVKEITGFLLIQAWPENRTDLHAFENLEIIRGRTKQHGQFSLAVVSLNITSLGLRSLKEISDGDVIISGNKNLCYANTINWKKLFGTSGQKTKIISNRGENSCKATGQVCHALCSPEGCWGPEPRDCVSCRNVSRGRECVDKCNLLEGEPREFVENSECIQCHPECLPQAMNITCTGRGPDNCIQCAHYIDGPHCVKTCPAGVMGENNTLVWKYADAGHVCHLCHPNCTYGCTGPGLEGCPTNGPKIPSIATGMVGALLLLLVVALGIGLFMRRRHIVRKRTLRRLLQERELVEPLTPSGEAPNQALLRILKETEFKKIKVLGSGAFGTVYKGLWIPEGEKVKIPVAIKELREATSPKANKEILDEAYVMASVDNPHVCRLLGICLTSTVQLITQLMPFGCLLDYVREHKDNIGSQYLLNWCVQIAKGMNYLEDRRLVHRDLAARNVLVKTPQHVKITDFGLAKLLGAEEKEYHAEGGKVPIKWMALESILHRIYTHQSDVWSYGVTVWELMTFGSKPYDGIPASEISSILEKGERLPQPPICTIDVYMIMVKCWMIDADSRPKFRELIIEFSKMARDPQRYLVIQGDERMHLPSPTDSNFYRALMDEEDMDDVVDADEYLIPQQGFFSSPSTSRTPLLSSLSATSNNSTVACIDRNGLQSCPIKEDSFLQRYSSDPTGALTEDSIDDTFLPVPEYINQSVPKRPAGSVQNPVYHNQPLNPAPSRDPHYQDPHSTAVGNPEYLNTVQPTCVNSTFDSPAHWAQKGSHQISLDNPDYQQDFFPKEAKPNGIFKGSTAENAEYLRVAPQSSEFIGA
EGFR wild type (EGFR WT), sequence (P00533 25-1210): as above
ErbB2 insYVMA (HER2-YVMA, SEQ ID NO: 2), sequence (P04626 with tags, fused parts or gaps INS775YVMA/P1170A limits assumed): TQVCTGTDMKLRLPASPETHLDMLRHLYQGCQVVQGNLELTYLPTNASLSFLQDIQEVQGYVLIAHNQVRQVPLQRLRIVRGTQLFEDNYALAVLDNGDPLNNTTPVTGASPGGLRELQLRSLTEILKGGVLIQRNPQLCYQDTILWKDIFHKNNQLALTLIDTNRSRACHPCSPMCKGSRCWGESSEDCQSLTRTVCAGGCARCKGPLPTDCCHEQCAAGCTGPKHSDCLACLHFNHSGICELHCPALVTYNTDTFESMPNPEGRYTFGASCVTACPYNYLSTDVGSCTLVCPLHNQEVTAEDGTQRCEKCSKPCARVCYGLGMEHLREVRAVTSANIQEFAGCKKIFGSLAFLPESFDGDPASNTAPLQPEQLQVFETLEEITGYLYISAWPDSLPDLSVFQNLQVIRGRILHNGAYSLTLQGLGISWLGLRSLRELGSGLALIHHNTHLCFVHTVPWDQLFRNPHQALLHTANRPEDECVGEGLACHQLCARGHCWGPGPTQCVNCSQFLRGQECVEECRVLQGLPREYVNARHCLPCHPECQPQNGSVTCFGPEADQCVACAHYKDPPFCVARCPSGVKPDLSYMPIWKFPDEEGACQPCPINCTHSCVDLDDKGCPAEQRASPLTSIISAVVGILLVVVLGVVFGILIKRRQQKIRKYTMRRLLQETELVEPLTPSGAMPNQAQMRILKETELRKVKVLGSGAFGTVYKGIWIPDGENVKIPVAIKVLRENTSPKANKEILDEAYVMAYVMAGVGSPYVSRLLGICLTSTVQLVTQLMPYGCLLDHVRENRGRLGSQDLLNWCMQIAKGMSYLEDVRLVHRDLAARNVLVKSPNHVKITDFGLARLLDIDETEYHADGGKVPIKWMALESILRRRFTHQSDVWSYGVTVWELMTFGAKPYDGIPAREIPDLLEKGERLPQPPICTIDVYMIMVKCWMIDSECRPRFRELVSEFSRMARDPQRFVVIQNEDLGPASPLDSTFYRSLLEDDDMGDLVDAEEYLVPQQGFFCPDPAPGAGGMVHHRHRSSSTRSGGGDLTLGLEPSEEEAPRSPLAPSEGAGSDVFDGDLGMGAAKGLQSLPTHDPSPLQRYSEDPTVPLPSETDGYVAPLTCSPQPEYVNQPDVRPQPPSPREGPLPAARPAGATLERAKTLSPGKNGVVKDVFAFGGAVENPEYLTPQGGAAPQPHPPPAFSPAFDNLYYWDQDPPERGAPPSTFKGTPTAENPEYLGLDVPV
ErbB2 WT, sequence (P04626 23-1255): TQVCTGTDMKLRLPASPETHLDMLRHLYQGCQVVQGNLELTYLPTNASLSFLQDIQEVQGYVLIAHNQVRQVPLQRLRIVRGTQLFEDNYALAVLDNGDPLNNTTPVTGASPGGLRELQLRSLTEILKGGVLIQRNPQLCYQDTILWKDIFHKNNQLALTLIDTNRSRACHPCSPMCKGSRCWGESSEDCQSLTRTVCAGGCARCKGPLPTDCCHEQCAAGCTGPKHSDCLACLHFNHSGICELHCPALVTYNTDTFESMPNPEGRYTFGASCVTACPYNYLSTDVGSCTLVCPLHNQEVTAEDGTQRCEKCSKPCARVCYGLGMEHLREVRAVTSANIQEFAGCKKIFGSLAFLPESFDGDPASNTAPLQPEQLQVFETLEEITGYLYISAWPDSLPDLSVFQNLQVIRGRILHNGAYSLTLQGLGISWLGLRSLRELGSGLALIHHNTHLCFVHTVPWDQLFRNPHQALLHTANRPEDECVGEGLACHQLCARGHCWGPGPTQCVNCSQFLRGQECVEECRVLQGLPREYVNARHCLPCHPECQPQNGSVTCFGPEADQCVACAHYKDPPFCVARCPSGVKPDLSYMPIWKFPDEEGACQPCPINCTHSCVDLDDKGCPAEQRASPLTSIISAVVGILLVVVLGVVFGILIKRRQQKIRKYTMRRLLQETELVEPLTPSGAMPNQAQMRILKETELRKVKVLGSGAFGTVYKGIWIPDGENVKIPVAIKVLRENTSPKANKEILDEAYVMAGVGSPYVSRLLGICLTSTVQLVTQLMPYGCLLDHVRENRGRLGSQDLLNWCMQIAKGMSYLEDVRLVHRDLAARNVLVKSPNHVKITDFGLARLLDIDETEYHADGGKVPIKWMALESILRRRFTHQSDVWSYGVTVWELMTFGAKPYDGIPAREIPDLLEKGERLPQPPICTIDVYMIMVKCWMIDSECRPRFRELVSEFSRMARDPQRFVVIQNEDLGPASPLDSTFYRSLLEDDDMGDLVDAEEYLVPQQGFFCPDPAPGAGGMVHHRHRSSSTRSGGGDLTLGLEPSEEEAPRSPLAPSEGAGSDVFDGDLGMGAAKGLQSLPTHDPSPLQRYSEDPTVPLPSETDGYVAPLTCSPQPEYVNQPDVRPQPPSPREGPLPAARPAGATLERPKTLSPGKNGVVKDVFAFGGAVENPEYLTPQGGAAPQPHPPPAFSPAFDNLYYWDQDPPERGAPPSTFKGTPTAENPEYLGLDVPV

With `Cc1cc(Nc2ncnc3cnc(O[C@H]4CNCC[C@@H]4F)nc23)ccc1Oc1ccc2c(c1)ncn2C` [Example 289] the IC50 (EGFR) was at least 10000 nM, the IC50 (EGFR wild type (EGFR WT)) was at least 5000 nM and the IC50 ([1]; read-out: Assay 1 IC50) was 109 nM. It also gave an IC50 [2] of 73.9 nM and an IC50 (ErbB2 WT) of 584 nM.
With `Cc1cc(Nc2ncnc3cnc(N4C[C@H]5COC[C@H]5C4)nc23)ccc1Oc1ccc2c(c1)ncn2C` [Example 466] the IC50 (EGFR) was at least 10000 nM, the IC50 (EGFR wild type (EGFR WT)) was at least 5000 nM and the IC50 ([1]; read-out: Assay 1 IC50) was 24.1 nM. It also gave an IC50 [2] of 16.2 nM and an IC50 (ErbB2 WT) of 61.3 nM.
In the case of `CN1CCN(c2ncc3ncnc(Nc4ccc(Oc5ccc6c(c5)ncn6C)c(Cl)c4)c3n2)CC1` [Example 143, N-(3-chloro-4-((1-methyl-1H-benzo[d]imidazol-5-yl)oxy)phenyl)-6-(4-methylpiperazin-1-yl)pyrimido[5,4-d]pyrimidin-4-amine 2,2,2-trifluoroacetate], the IC50 (EGFR) is reported as 7410 nM, the IC50 (EGFR wild type (EGFR WT)) is reported as at least 5000 nM and the IC50 ([1]; Assay 1 IC50 (nM)) is reported as 35.1 nM. For the same compound, the IC50 [2] was 28.2 nM and the IC50 (ErbB2 WT) was 50.7 nM.
`Cc1cc(Nc2ncnc3cnc(N4CCN(CC(F)(F)F)CC4)nc23)ccc1Oc1ccc2c(c1)ncn2C` [Example 85, N-(3-methyl-4-((1-methyl-1H-benzo[d]imidazol-5-yl)oxy)phenyl)-6-(4-(2,2,2-trifluoroethyl)piperazin-1-yl)pyrimido[5,4-d]pyrimidin-4-amine] gave an IC50 (EGFR) of at least 10000 nM, an IC50 (EGFR wild type (EGFR WT)) of at least 5000 nM and an IC50 ([1]; read-out: Assay 1 IC50) of 204 nM. The IC50 [2] was 130 nM and the IC50 (ErbB2 WT) was 726 nM.
In the case of `Clc1cc(Nc2ncnc3cnc(N4CCN5CCOC[C@@H]5C4)nc23)ccc1Oc1ccn2ncnc2c1` [Example 431], the IC50 (EGFR) is reported as at least 10000 nM, the IC50 (EGFR wild type (EGFR WT)) is reported as at least 5000 nM and the IC50 ([1]; read-out: Assay 1 IC50) is reported as 21.8 nM. For the same compound, the IC50 [2] was 232 nM and the IC50 (ErbB2 WT) was 63.1 nM.
For `CSc1ncc2ncnc(Nc3ccc(Oc4ccc5c(c4)ncn5C)c(C)c3F)c2n1` [Example 266], the IC50 (EGFR) was at least 10000 nM, the IC50 (EGFR wild type (EGFR WT)) was at least 5000 nM and the IC50 ([1]; read-out: Assay 1 IC50) was 115 nM. For the same compound, the IC50 [2] was 642 nM and the IC50 (ErbB2 WT) was 796 nM.
For `O[C@@H]1[C@@H]2CC[C@H]1CN(c1ncc3ncnc(Nc4ccc(Oc5ccn6ncnc6c5)c(Cl)c4)c3n1)C2` [Example 341], the IC50 (EGFR) was 1740 nM, the IC50 (EGFR wild type (EGFR WT)) was at least 5000 nM and the IC50 ([1]; read-out: Assay 1 IC50) was 12.7 nM. It also gave an IC50 [2] of 43.1 nM and an IC50 (ErbB2 WT) of 20.7 nM.
`Clc1cc(Nc2ncnc3cnc(N4CCC5COCC54)nc23)ccc1Oc1ccn2ncnc2c1` (stereo not shown) [Example 377] was tested, and the IC50 (EGFR) was 1410 nM, the IC50 (EGFR wild type (EGFR WT)) was at least 5000 nM and the IC50 ([1]; read-out: Assay 1 IC50) was 7.6 nM. It also gave an IC50 [2] of 58.2 nM and an IC50 (ErbB2 WT) of 14.7 nM.
Work on `CCN(CC(C)(C)O)c1ncc2ncnc(Nc3ccc(Oc4ccc5c(c4)ncn5C)c(C)c3)c2n1` [Example 478] yielded an IC50 (EGFR) of at least 10000 nM, an IC50 (EGFR wild type (EGFR WT)) of at least 5000 nM and an IC50 ([1]; read-out: Assay 1 IC50) of 27.9 nM. The IC50 [2] was 109 nM and the IC50 (ErbB2 WT) was 41.6 nM.
Compound `O=S1(=O)CC[C@@H]2CN(c3ncc4ncnc(Nc5ccc(Oc6ccn7ncnc7c6)c(Cl)c5)c4n3)C[C@@H]21` [Example 433] has an IC50 (EGFR) of at least 10000 nM, an IC50 (EGFR wild type (EGFR WT)) of at least 5000 nM and an IC50 ([1]; read-out: Assay 1 IC50) of 29.3 nM. The IC50 [2] was 385 nM and the IC50 (ErbB2 WT) was 67.4 nM.
With `Clc1cc(Nc2ncnc3cnc(N4CCC4)nc23)ccc1Oc1ccn2ncnc2c1` [Example 112, N-(4-([1,2,4]triazolo[1,5-a]pyridin-7-yloxy)-3-chlorophenyl)-6-(azetidin-1-yl)pyrimido[5,4-d]pyrimidin-4-amine] the IC50 (EGFR) was at least 10000 nM, the IC50 (EGFR wild type (EGFR WT)) was at least 5000 nM and the IC50 ([1]; read-out: Assay 1 IC50) was 18.7 nM. The IC50 [2] was 190 nM and the IC50 (ErbB2 WT) was 44.1 nM.
`Cc1cc(Nc2ncnc3cnc(O[C@H]4CCN(C)C[C@H]4F)nc23)ccc1Oc1ccc2c(c1)ncn2C` [Example 286] gave an IC50 (EGFR) of at least 10000 nM, an IC50 (EGFR wild type (EGFR WT)) of at least 5000 nM and an IC50 ([1]; read-out: Assay 1 IC50) of 98.1 nM. For the same compound, the IC50 [2] was 81.4 nM and the IC50 (ErbB2 WT) was 468 nM.
`Cc1cc(Nc2ncnc3cnc(N4CC[C@H](C(F)F)C4)nc23)ccc1Oc1ccn2ncnc2c1` [Example 359] showed an IC50 (EGFR) of at least 10000 nM, an IC50 (EGFR wild type (EGFR WT)) of at least 5000 nM and an IC50 ([1]; read-out: Assay 1 IC50) of 11.7 nM. For the same compound, the IC50 [2] was 278 nM and the IC50 (ErbB2 WT) was 32.7 nM.
`Clc1cc(Nc2ncnc3cnc(N4C[C@H]5C[C@@H]4CO5)nc23)ccc1Oc1ccn2ncnc2c1` [Example 418] was tested, and the IC50 (EGFR) was at least 10000 nM, the IC50 (EGFR wild type (EGFR WT)) was at least 5000 nM and the IC50 ([1]; read-out: Assay 1 IC50) was 42.8 nM. For the same compound, the IC50 [2] was 229 nM and the IC50 (ErbB2 WT) was 103 nM.
For `Cn1cnc2cc(Oc3ccc(Nc4ncnc5cnc(N6C[C@H]7C[C@@H]6CO7)nc45)cc3Cl)ccc21` [Example 455], the IC50 (EGFR) was at least 10000 nM, the IC50 (EGFR wild type (EGFR WT)) was at least 5000 nM and the IC50 ([1]; read-out: Assay 1 IC50) was 48.7 nM. The IC50 [2] was 58.2 nM and the IC50 (ErbB2 WT) was 176 nM.
`N#CC[C@H]1CCN(c2ncc3ncnc(Nc4ccc(Oc5ccn6ncnc6c5)c(Cl)c4)c3n2)C1` [Example 406] was tested, and the IC50 (EGFR) was 8280 nM, the IC50 (EGFR wild type (EGFR WT)) was at least 5000 nM and the IC50 ([1]; read-out: Assay 1 IC50) was 16.6 nM. The IC50 [2] was 63.6 nM and the IC50 (ErbB2 WT) was 32.3 nM.
`Cc1cc(Nc2ncnc3cnc(N[C@H]4CNC[C@H]4F)nc23)ccc1Oc1ccc2c(c1)ncn2C` [Example 276] gave an IC50 (EGFR) of 1360 nM, an IC50 (EGFR wild type (EGFR WT)) of at least 5000 nM and an IC50 ([1]; read-out: Assay 1 IC50) of 8 nM. The IC50 [2] was 41.5 nM and the IC50 (ErbB2 WT) was 13.5 nM.
